Laboratory results as given in US11660286B2, “Methods and compositions comprising a nitrite-reductase promoter for treatment of medical disorders and preservation of blood products” (EpicentRx, Inc., priority 2011, dated 2023).
Read-outs that look alike come from different tables or passages of the source.

Experiments:
hemorrhagic shock [1] = experiment: Resuscitation from hemorrhagic shock, hamster window chamber model: microvascular measurements; assay type: in vivo, Golden Syrian Hamsters; settings: for functional capillary density (FCD), baseline average and standard deviation: before hemorrhage (FIG. 11)
Experimental: (§1) Experiments were performed in 55-65 g male Golden Syrian Hamsters (Charles River Laboratories, Boston, Mass.) fitted with a dorsal skinfold window chamber. Animal handling and care followed the NIH Guide for the Care and Use of Laboratory Animals. The hamster window chamber model is widely used for microvascular studies in the unanesthetized state. The complete surgical technique is described in detail elsewhere, such as in Colantuoni et al. in Am J Physiol 1984; 246:H508-17. Three to four days after the initial surgery, the microvasculature was examined and only animals passing an established systemic and microcirculatory inclusion criteria, as previously described (e.g., in Cabrales P. Low dose nitrite enhances perfusion after fluid resuscitation from hemorrhagic shock. Resuscitation 2009; 80: 1431-6), were entered into the study.
(§2) Acute hemorrhage was induced by withdrawing 50% of estimated total blood volume (BV) via the carotid artery catheter within 5 min. Total BV was estimated as 7% of body weight. One hour after hemorrhage induction, animals received 25% of BY of resuscitation (200 μl/min) via the jugular vein catheter, implemented with the volume resuscitation strategy defined by the group name, according to the scheme described before.
(§3) Fresh blood was collected from a donor, adult male Golden Syrian Hamsters (60-80 g). Briefly, hamster donors were anaesthetized, left carotid artery catheter was implanted, and blood was allowed to flow into heparinized tubes (sodium heparin 15 IU/mL). RBCs and plasma were separated by centrifugation (2700 rpm, 7 min). Buffy coat was discarded. RRx-001 treated cells were prepared by incubation of 1 mL of packed cells with 2 mg of RRx-001 for 30 minutes at 4° C., cells were rinsed 2× by centrifugation at 3,000 rpm with phosphate buffer saline (PBS) solution with 0.5% albumin (pre-filtered 0.22 μm, pH 7.4). After the final wash, red blood cells (RBCs) were adjusted to a 30% Het with fresh plasma.
(§4) For the groups that received “nitrite,” 10 μM (in saline 100 μL) of sodium nitrite in saline was infused via the carotid artery catheter 10 minutes after resuscitation for the groups that received nitrite. An equal volume of saline was given to the other groups. To address effects of instrumentation and observation, an additional Sham group was included.
(§5) Conscious animal was placed in a restraining tube with a longitudinal slit from which the window chamber protruded, then fixed to the microscopic stage for transillumination with the intravital microscope (BX51WI, Olympus, New Hyde Park, N.Y.). Animals were given 20 min to adjust to the tube environment before any measurements were made. The tissue image was projected onto a charge-coupled device camera (4815, COHU, San Diego, Calif.) connected to a videocassette recorder and viewed on a monitor. Measurements were carried out using a 40× (LUMPFL-WIR, numerical aperture 0.8, Olympus) water immersion objective. Systemic (MAP, HR, Het, Hb, PaO2, PaCO2, pH, lactate, plasma nitrite, and metHb) and microvascular (artciorlar and venular diameters, blood flow, and FCD) parameters were analyzed, as previously described (e.g., in P. Nachuraju et al. in Resuscitation 2011; 82:607-613; Cabrales P. in Resuscitation 2009; 80:1431-6; Cabrales et al. in Shock 2007; 27:380-9; and Cabrales et al. in Am J Physiol 2004; 287:H363-73) before hemorrhage (baseline), after hemorrhage (shock), and up to 90 min after volume replacement (resuscitation). Tissue viability was measured at 8 hours following hemorrhage as described previously (e.g., in Yang et al. In Invest Ophthalmol Vis Sci 2003; 44:1993-1997; and Cabrales et al. in Antioxid Redox Signal 2007; 9:375-84).
(§6) Table and figure results are presented as mean±SD.

hemorrhagic shock [2] = assay type: in vivo, Golden Syrian Hamsters
Experimental: as §1
Acute hemorrhage was induced by withdrawing 50% of estimated total blood volume (BV) via the carotid artery catheter within 5 min. Total BV was estimated as 7% of body weight. […]
as §5, with “Animals were given 20 min to adjust to the tube environment before any measurements were made. The tissue image was projected onto a charge-coupled device camera (4815, COHU, San Diego, Calif.) connected to a videocassette recorder and viewed on a monitor. Measurements were carried out using a 40× (LUMPFL-WIR, numerical aperture 0.8, Olympus) water immersion objective.” left out, “9:375-84). […]” for “9:375-84).”

blood sample = experiment: Nitric oxide production in a sample of blood with sodium nitrite (Tonometer, chemiluminescent NO analysis); assay type: cell-based; settings: anaerobic conditions (N2 atmosphere), 30 min, 37° C., compared to without ABDNAZ or with ABDNAZ under air
Experimental: The ability of ABDNAZ to increase nitric oxide production in a sample of blood under aerobic conditions and anaerobic conditions was evaluated.
A 0.5 mL aliquot of blood was placed in a tonometer. ABDNAZ (5 μL of a 300 mM solution of ABDNAZ in dimethylsulfoxide) was optionally added to the blood sample in the Tonometer. Sodium nitrite was added to the blood sample to achieve a sodium nitrite concentration of 167 mM. Gas (either air or N2) was passed through the Tonometer at a flow rate of 150 mL/min. Gas exiting the Tonometer was collected in three-minute intervals for a period of thirty minutes. The amount of nitric oxide in each of the collected fractions was measured by a chemiluminescent reaction with ozone in a Sievers Nitric Oxide Analyzer. The amount of nitric oxide produced from the blood sample was expressed per mole of hemoglobin present in the blood sample. All experiments were performed at 37° C.
The amount of hemoglobin (Hb) and hematocrit (Het) in the blood sample was determined using an Advia analyzer.

hemorrhagic shock [3] = experiment: Resuscitation from hemorrhagic shock, hamster window chamber model: systemic parameters; settings: for BP / HR / Hb / Hct / Lactate / pCO2 / pO2 / pH: mean ± SD; for pH: arterial
Experimental: as §1, §2, §3, §4, §5, §6

hemorrhagic shock [4] = settings: 50 μM nitrite, previous study, cited from earlier work
[5] = 60 minutes following resuscitation
[6] = 90 minutes following resuscitation
[7] = 8 hours following resuscitation, cells in 40 fields
[8] = Shock (50 min), after hemorrhage, before resuscitation
[9] = Shock (50 min), before resuscitation

O=C(CBr)N1CC([N+](=O)[O-])([N+](=O)[O-])C1 [RRx-001]
blood flow compared to the blood group (hemorrhagic shock [1]; [5]): significantly (P<0.001) increased | blood flow compared to the blood group (hemorrhagic shock [1]; [6]): significantly (P<0.001) increased | functional capillary density (FCD) compared to the blood group (hemorrhagic shock [1]; 90 minutes post resuscitation): significant (P<0.05 and P<0.01, respectively) increases | functional capillary density (FCD), baseline average and standard deviation (hemorrhagic shock [1]): 112±9 | number of apoptotic cells compared to the blood group (hemorrhagic shock [2]; [7]): significantly (P<0.01) less | number of necrotic cells compared to the blood group (hemorrhagic shock [2]; [7]): significantly (P<0.01) less | amount of nitric oxide produced by the blood sample (blood sample): significant increase | metHb levels (hemorrhagic shock [3]; 60 and 90 minutes post fluid resuscitation (FIG. 9), normal about 1% of total Hb): normal | MAP compared to the blood group (hemorrhagic shock [3]; 30 minutes following resuscitation): only decreased at 30 minutes | metHb levels (hemorrhagic shock [3]; 60 minutes following resuscitation, RRx-001 treated blood): 1.4±0.1% | pH compared to the blood group (hemorrhagic shock [3]; 60 minutes post resuscitation): significantly increased | blood pressure (MAP) after resuscitation from shock (hemorrhagic shock [3]; 60 minutes, comparator not stated): significantly decreased | metHb levels (hemorrhagic shock [3]; 90 minutes following resuscitation, RRx-001 treated blood): 1.2±0.1% | pO2 levels compared to the blood group (hemorrhagic shock [3]; 90 minutes post resuscitation): significantly increased | BP (hemorrhagic shock [3]; Baseline (before hemorrhage)): 106.3 ± 8.7 mmHg | HR (hemorrhagic shock [3]; Baseline (before hemorrhage)): 409 ± 21 bpm | Hb (hemorrhagic shock [3]; Baseline (before hemorrhage)): 15.1 ± 0.3 g/dL | Hct (hemorrhagic shock [3]; Baseline (before hemorrhage)): 49.7 ± 1.0% | Lactate (hemorrhagic shock [3]; Baseline (before hemorrhage)): 1.39 ± 0.20 mmol/L | pCO2 (hemorrhagic shock [3]; Baseline (before hemorrhage)): 54.2 ± 1.8 mmHg | pO2 (hemorrhagic shock [3]; Baseline (before hemorrhage)): 59.9 ± 2.5 mmHg | blood pressure following resuscitation (hemorrhagic shock [3]; RRx-001 treated blood, current study): maintained blood pressure | BP (hemorrhagic shock [3]; Resuscitation (30 min)): 92.5 ± 6.7 mmHg | HR (hemorrhagic shock [3]; Resuscitation (30 min)): 436 ± 12 bpm | BP (hemorrhagic shock [3]; Resuscitation (60 min)): 98.5 ± 7.6 mmHg | HR (hemorrhagic shock [3]; Resuscitation (60 min)): 444 ± 10 bpm | Hb (hemorrhagic shock [3]; Resuscitation (60 min)): 9.5 ± 0.2 g/dL | Hct (hemorrhagic shock [3]; Resuscitation (60 min)): 31.1 ± 0.6% | Lactate (hemorrhagic shock [3]; Resuscitation (60 min)): 1.93 ± 0.23 mmol/L | pCO2 (hemorrhagic shock [3]; Resuscitation (60 min)): 48.0 ± 3.1 mmHg | pO2 (hemorrhagic shock [3]; Resuscitation (60 min)): 70.9 ± 3.4 mmHg | BP (hemorrhagic shock [3]; Resuscitation (90 min)): 106.3 ± 9.0 mmHg | HR (hemorrhagic shock [3]; Resuscitation (90 min)): 453 ± 17 bpm | Hb (hemorrhagic shock [3]; Resuscitation (90 min)): 9.5 ± 0.1 g/dL | Hct (hemorrhagic shock [3]; Resuscitation (90 min)): 31.2 ± 0.6% | Lactate (hemorrhagic shock [3]; Resuscitation (90 min)): 1.63 ± 0.23 mmol/L | pCO2 (hemorrhagic shock [3]; Resuscitation (90 min)): 49.0 ± 2.2 mmHg | pO2 (hemorrhagic shock [3]; Resuscitation (90 min)): 68.7 ± 2.9 mmHg | BP (hemorrhagic shock [3]; [8]): 46.3 ± 4.0 mmHg | HR (hemorrhagic shock [3]; [8]): 422.5 ± 25 bpm | Hb (hemorrhagic shock [3]; [8]): 8.9 ± 0.3 g/dL | Hct (hemorrhagic shock [3]; [8]): 29.0 ± 0.8% | Lactate (hemorrhagic shock [3]; [9]): 4.16 ± 0.39 mmol/L | pCO2 (hemorrhagic shock [3]; [9]): 39.3 ± 1.2 mmHg | pO2 (hemorrhagic shock [3]; [9]): 94.9 ± 5.1 mmHg | pH (hemorrhagic shock [3]; Baseline (before hemorrhage)): 7.32 ± 0.01 | pH (hemorrhagic shock [3]; Resuscitation (60 min)): 7.39 ± 0.01 | pH (hemorrhagic shock [3]; Resuscitation (90 min)): 7.36 ± 0.01 | pH (hemorrhagic shock [3]; [9]): 7.28 ± 0.02 | HR compared to the blood group (hemorrhagic shock [3]; following resuscitation): significantly increased | pCO2 levels compared to the blood group (hemorrhagic shock [3]; following resuscitation): not significantly different | decreases in lactate levels compared to the blood group (hemorrhagic shock [3]; post-resuscitation): did not reach significance

O=NO [Nitrite, sodium nitrite]
functional capillary density (FCD), baseline average and standard deviation (hemorrhagic shock [1]): 107±12 | functional capillary density (FCD) compared to the blood group (hemorrhagic shock [1]; hamster, in vivo): not significantly different | % metHb (hemorrhagic shock [4]; [5]): 5.8±1.8% | Blood pressure compared to 0 μM group (control group) (hemorrhagic shock [4]; [5]): significantly decreased | % metHb (hemorrhagic shock [4]; [6]): 3.1±1.3% | number of necrotic cells compared to the blood group (hemorrhagic shock [2]; hamster, in vivo): significantly reduced | BP (hemorrhagic shock [3]; Baseline (before hemorrhage)): 104.3 ± 9.0 mmHg | HR (hemorrhagic shock [3]; Baseline (before hemorrhage)): 428 ± 13 bpm | Hb (hemorrhagic shock [3]; Baseline (before hemorrhage)): 15.2 ± 0.3 g/dL | Hct (hemorrhagic shock [3]; Baseline (before hemorrhage)): 49.8 ± 0.8% | Lactate (hemorrhagic shock [3]; Baseline (before hemorrhage)): 1.30 ± 0.13 mmol/L | pCO2 (hemorrhagic shock [3]; Baseline (before hemorrhage)): 52.9 ± 1.2 mmHg | pO2 (hemorrhagic shock [3]; Baseline (before hemorrhage)): 60.5 ± 1.0 mmHg | BP (hemorrhagic shock [3]; Resuscitation (30 min)): 91.3 ± 6.9 mmHg | HR (hemorrhagic shock [3]; Resuscitation (30 min)): 438 ± 21 bpm | BP (hemorrhagic shock [3]; Resuscitation (60 min)): 96.3 ± 7.5 mmHg | HR (hemorrhagic shock [3]; Resuscitation (60 min)): 447 ± 21 bpm | Hb (hemorrhagic shock [3]; Resuscitation (60 min)): 9.5 ± 0.2 g/dL | Hct (hemorrhagic shock [3]; Resuscitation (60 min)): 31.0 ± 0.7% | Lactate (hemorrhagic shock [3]; Resuscitation (60 min)): 1.95 ± 0.11 mmol/L | pCO2 (hemorrhagic shock [3]; Resuscitation (60 min)): 48.3 ± 2.2 mmHg | pO2 (hemorrhagic shock [3]; Resuscitation (60 min)): 76.0 ± 2.9 mmHg | BP (hemorrhagic shock [3]; Resuscitation (90 min)): 94.7 ± 6.5 mmHg | HR (hemorrhagic shock [3]; Resuscitation (90 min)): 459 ± 14 bpm | Hb (hemorrhagic shock [3]; Resuscitation (90 min)): 9.6 ± 0.1 g/dL | Hct (hemorrhagic shock [3]; Resuscitation (90 min)): 31.5 ± 0.4% | Lactate (hemorrhagic shock [3]; Resuscitation (90 min)): 1.71 ± 0.20 mmol/L | pCO2 (hemorrhagic shock [3]; Resuscitation (90 min)): 45.0 ± 2.4 mmHg | pO2 (hemorrhagic shock [3]; Resuscitation (90 min)): 65.2 ± 3.0 mmHg | BP (hemorrhagic shock [3]; [8]): 46.1 ± 3.6 mmHg | HR (hemorrhagic shock [3]; [8]): 455 ± 21 bpm | Hb (hemorrhagic shock [3]; [8]): 8.9 ± 0.1 g/dL | Hct (hemorrhagic shock [3]; [8]): 29.2 ± 0.5% | Lactate (hemorrhagic shock [3]; [9]): 4.52 ± 0.58 mmol/L | pCO2 (hemorrhagic shock [3]; [9]): 38.9 ± 1.3 mmHg | pO2 (hemorrhagic shock [3]; [9]): 93.1 ± 2.8 mmHg | pH (hemorrhagic shock [3]; Baseline (before hemorrhage)): 7.34 ± 0.02 | pH (hemorrhagic shock [3]; Resuscitation (60 min)): 7.38 ± 0.02 | pH (hemorrhagic shock [3]; Resuscitation (90 min)): 7.36 ± 0.02 | pH (hemorrhagic shock [3]; [9]): 7.30 ± 0.01 | HR compared to the blood group (hemorrhagic shock [3]; hamster, in vivo): significantly increased | MAP compared to the blood group (hemorrhagic shock [3]; hamster, in vivo): significantly decreased | decreases in lactate levels compared to the blood group (hemorrhagic shock [3]; hamster, in vivo): did not reach significance | pH compared to the blood group (hemorrhagic shock [3]; hamster, in vivo): significantly increased | pO2 levels compared to the blood group (hemorrhagic shock [3]; hamster, in vivo): significantly increased
